{"source": "paper PMC5218480", "about": "(PLoS ONE, 2017)", "system": "MV-4-11 cells", "assay": "Gene expression microarray analysis (Affymetrix PrimeView) and GSEA", "assay_type": "cell-based, human", "set-up": "RFU PODN (11730768_x_at) / Fold change /veh PODN (11730768_x_at) / RFU LINC00158 (11744669_a_at) / Fold change /veh LINC00158 (11744669_a_at) / RFU DUSP10 (11751237_a_at) / Fold change /veh DUSP10 (11751237_a_at) / RFU ID3 (11757404_x_at) / Fold change /veh ID3 (11757404_x_at) / RFU PLEKHG5 (11737974_s_at) / Fold change /veh PLEKHG5 (11737974_s_at) / RFU LRRC4B (11730491_at) / Fold change /veh LRRC4B (11730491_at) / RFU GIMAP4 (11747438_a_at) / Fold change /veh GIMAP4 (11747438_a_at) / RFU KRT8 (11758183_x_at) / Fold change /veh KRT8 (11758183_x_at) / RFU CNN1 (11734310_a_at) / Fold change /veh CNN1 (11734310_a_at) / RFU VPS37D (11726825_at) / Fold change /veh VPS37D (11726825_at) / RFU C10orf10 (11716522_x_at) / Fold change /veh C10orf10 (11716522_x_at) / RFU KIR2DL2 /// KIR2DL4 /// KIR2DL5A /// KIR2DL5B /// KIR2DS1 /// KIR2DS2 /// KIR2DS3 /// KIR2DS4 /// KIR3DL3 /// KIR3DL3 /// KIR3DS1 (11738374_at) / Fold change /veh KIR2DL2 /// KIR2DL4 /// KIR2DL5A /// KIR2DL5B /// KIR2DS1 /// KIR2DS2 /// KIR2DS3 /// KIR2DS4 /// KIR3DL3 /// KIR3DL3 /// KIR3DS1 (11738374_at) / RFU C1QL1 (11718748_at) / Fold change /veh C1QL1 (11718748_at) / RFU TMPRSS4 (11747572_a_at) / Fold change /veh TMPRSS4 (11747572_a_at) / RFU HAMP (11756126_x_at) / Fold change /veh HAMP (11756126_x_at) / RFU RNFT2 (11725882_a_at) / Fold change /veh RNFT2 (11725882_a_at) / RFU NR4A2 (11747474_a_at) / Fold change /veh NR4A2 (11747474_a_at) / RFU ABCC12 (11746883_a_at) / Fold change /veh ABCC12 (11746883_a_at) / RFU TMEM136 (11760407_x_at) / Fold change /veh TMEM136 (11760407_x_at) / RFU CLDN22 /// WWC2 (11732394_at) / Fold change /veh CLDN22 /// WWC2 (11732394_at) / RFU HLA-DPB1 (11760878_x_at) / Fold change /veh HLA-DPB1 (11760878_x_at) / RFU SPINT1 (11716480_a_at) / Fold change /veh SPINT1 (11716480_a_at) / RFU GAP43 (11754022_s_at) / Fold change /veh GAP43 (11754022_s_at) / RFU A4GNT (11735810_at) / Fold change /veh A4GNT (11735810_at) / RFU PRB3 (11715151_x_at) / Fold change /veh PRB3 (11715151_x_at) / RFU TUBB4B (11761932_at) / Fold change /veh TUBB4B (11761932_at) / RFU CAPN14 (11732068_a_at) / Fold change /veh CAPN14 (11732068_a_at) / RFU TMCC2 (11721928_a_at) / Fold change /veh TMCC2 (11721928_a_at) / RFU IRGQ (11745062_a_at) / Fold change /veh IRGQ (11745062_a_at) / RFU FAM174B (11720279_a_at) / Fold change /veh FAM174B (11720279_a_at) / RFU TMPRSS4 (11748680_a_at) / Fold change /veh TMPRSS4 (11748680_a_at) / RFU FAM212B (11763350_a_at) / Fold change /veh FAM212B (11763350_a_at) / RFU PLEKHG5 (11743358_a_at) / Fold change /veh PLEKHG5 (11743358_a_at) / RFU ZSCAN30 (11745921_a_at) / Fold change /veh ZSCAN30 (11745921_a_at) / RFU CMKLR1 (11741424_a_at) / Fold change /veh CMKLR1 (11741424_a_at) / RFU LOC101060620 /// MAPK8IP1 (11723275_at) / Fold change /veh LOC101060620 /// MAPK8IP1 (11723275_at) / RFU SPTSSB (11747773_x_at) / Fold change /veh SPTSSB (11747773_x_at) / RFU PRSS12 (11739890_at) / Fold change /veh PRSS12 (11739890_at) / RFU BIN1 (11741810_x_at) / Fold change /veh BIN1 (11741810_x_at) / RFU WNT11 (11732464_a_at) / Fold change /veh WNT11 (11732464_a_at) / RFU C10orf10 (11716521_a_at) / Fold change /veh C10orf10 (11716521_a_at) / RFU C5orf56 (11738089_at) / Fold change /veh C5orf56 (11738089_at) / RFU CYB561 (11721691_x_at) / Fold change /veh CYB561 (11721691_x_at) / RFU ANKRD19P (11752326_a_at) / Fold change /veh ANKRD19P (11752326_a_at) / RFU OR2T12 /// OR2T33 /// OR2T8 (11738714_s_at) / Fold change /veh OR2T12 /// OR2T33 /// OR2T8 (11738714_s_at) / RFU VCAN (11748164_a_at) / Fold change /veh VCAN (11748164_a_at) / RFU JSRP1 (11732532_at) / Fold change /veh JSRP1 (11732532_at) / RFU KRTAP10-11 (11738290_x_at) / Fold change /veh KRTAP10-11 (11738290_x_at) / RFU MYO3A (11730013_a_at) / Fold change /veh MYO3A (11730013_a_at) / RFU EBF3 (11725865_a_at) / Fold change /veh EBF3 (11725865_a_at) / RFU CAMK2N1 (11719241_x_at) / Fold change /veh CAMK2N1 (11719241_x_at) / RFU C5orf56 (11738088_a_at) / Fold change /veh C5orf56 (11738088_a_at) / RFU OLFML3 (11715873_a_at) / Fold change /veh OLFML3 (11715873_a_at) / RFU LOC100653217 /// NTM (11731650_a_at) / Fold change /veh LOC100653217 /// NTM (11731650_a_at) / RFU MAPK11 (11762145_a_at) / Fold change /veh MAPK11 (11762145_a_at) / RFU FIZ1 (11724087_x_at) / Fold change /veh FIZ1 (11724087_x_at) / RFU OASL (11726364_x_at) / Fold change /veh OASL (11726364_x_at) / RFU SOX15 (11748057_x_at) / Fold change /veh SOX15 (11748057_x_at) / RFU CD79A (11719716_a_at) / Fold change /veh CD79A (11719716_a_at) / RFU HIST1H1D (11736915_at) / Fold change /veh HIST1H1D (11736915_at) / RFU CASKIN2 (11723855_a_at) / Fold change /veh CASKIN2 (11723855_a_at) / RFU LOC730098 (11760151_x_at) / Fold change /veh LOC730098 (11760151_x_at) / RFU OR4N2 (11742367_at) / Fold change /veh OR4N2 (11742367_at) / RFU PRRT2 (11749266_a_at) / Fold change /veh PRRT2 (11749266_a_at) / RFU SNX32 (11753110_a_at) / Fold change /veh SNX32 (11753110_a_at) / RFU CDHR5 (11726645_a_at) / Fold change /veh CDHR5 (11726645_a_at) / RFU RCAN1 (11760418_a_at) / Fold change /veh RCAN1 (11760418_a_at) / RFU FAM167A (11723789_a_at) / Fold change /veh FAM167A (11723789_a_at) / RFU FAM26E (11764081_at) / Fold change /veh FAM26E (11764081_at) / RFU ISYNA1 (11749810_s_at) / Fold change /veh ISYNA1 (11749810_s_at) / RFU ACY1 (11761880_at) / Fold change /veh ACY1 (11761880_at) / RFU 11764098_at / Fold change /veh 11764098_at / RFU SAMD14 (11745864_x_at) / Fold change /veh SAMD14 (11745864_x_at) / RFU NPB (11741838_a_at) / Fold change /veh NPB (11741838_a_at) / RFU TMPRSS6 (11731388_a_at) / Fold change /veh TMPRSS6 (11731388_a_at) / RFU KRTAP10-2 (11738614_at) / Fold change /veh KRTAP10-2 (11738614_at) / RFU ARHGAP8 /// PRR5-ARHGAP8 (11727945_x_at) / Fold change /veh ARHGAP8 /// PRR5-ARHGAP8 (11727945_x_at) / RFU KRTAP5-7 /// NADSYN1 (11734609_at) / Fold change /veh KRTAP5-7 /// NADSYN1 (11734609_at) / RFU RASL12 (11751679_a_at) / Fold change /veh RASL12 (11751679_a_at) / RFU CDKN2B (11736163_a_at) / Fold change /veh CDKN2B (11736163_a_at) / RFU PRF1 (11729649_at) / Fold change /veh PRF1 (11729649_at) / RFU, ZNF638 /// ZNF638-IT1 / Fold change vs veh, ZNF638 /// ZNF638-IT1 / RFU, PANK3 / Fold change vs veh, PANK3 / RFU, SH3YL1 / Fold change vs veh, SH3YL1 / RFU, ZEB2 / Fold change vs veh, ZEB2 / RFU, NRIP1 / Fold change vs veh, NRIP1 / RFU, PTTG1IP / Fold change vs veh, PTTG1IP / RFU, CAPN2 / Fold change vs veh, CAPN2 / RFU, MED14 / Fold change vs veh, MED14 / RFU, SNORA58 / Fold change vs veh, SNORA58 / RFU, C1orf63 / Fold change vs veh, C1orf63 / RFU, LRRFIP1 / Fold change vs veh, LRRFIP1 / RFU, NDUFAF7 / Fold change vs veh, NDUFAF7 / RFU, SLC12A2 / Fold change vs veh, SLC12A2 / RFU, IBTK / Fold change vs veh, IBTK / RFU, ESF1 / Fold change vs veh, ESF1 / Fold change vs veh, TMEM50B / RFU, TAOK1 / Fold change vs veh, TAOK1 / RFU, ACBD3 / Fold change vs veh, ACBD3 / RFU, TMA16 / Fold change vs veh, TMA16 / RFU, RWDD3 / Fold change vs veh, RWDD3 / RFU, BCAT1 / Fold change vs veh, BCAT1 / RFU, EDEM3 / Fold change vs veh, EDEM3 / RFU, TMEM33 / Fold change vs veh, TMEM33 / RFU, WDR75 / Fold change vs veh, WDR75 / RFU, AHCTF1 / Fold change vs veh, AHCTF1 / RFU, TFRC / Fold change vs veh, TFRC / RFU, ZDHHC17 / Fold change vs veh, ZDHHC17 / RFU, NOM1 / Fold change vs veh, NOM1 / RFU, ARL8B / Fold change vs veh, ARL8B / RFU, ZBTB11 / Fold change vs veh, ZBTB11 / RFU, TAMM41 / Fold change vs veh, TAMM41 / RFU, KIAA1704 /// LOC100996395 / Fold change vs veh, KIAA1704 /// LOC100996395 / RFU, ING1 / Fold change vs veh, ING1 / RFU, TRMT61B / Fold change vs veh, TRMT61B / RFU, FUBP3 / Fold change vs veh, FUBP3 / RFU, TP53 / Fold change vs veh, TP53 / RFU, TNKS2 / Fold change vs veh, TNKS2 / RFU, ZFP14 / Fold change vs veh, ZFP14 / RFU, ACTR2 / Fold change vs veh, ACTR2 / RFU, PPP3R1 / Fold change vs veh, PPP3R1 / RFU, PIK3R1 / Fold change vs veh, PIK3R1 / RFU, HNRNPA1 / Fold change vs veh, HNRNPA1 / RFU, RNF170 / Fold change vs veh, RNF170 / RFU, ZNF28 / Fold change vs veh, ZNF28 / RFU, RNGTT / Fold change vs veh, RNGTT / RFU, OGT / Fold change vs veh, OGT / RFU, BRD1 / Fold change vs veh, BRD1 / RFU, MARS / Fold change vs veh, MARS / RFU, ZNF655 / Fold change vs veh, ZNF655 / RFU, FAHD1 / Fold change vs veh, FAHD1 / RFU, BDP1 / Fold change vs veh, BDP1 / RFU, LRRCC1 / Fold change vs veh, LRRCC1 / RFU, ARID1A / Fold change vs veh, ARID1A / RFU, ZNF146 / Fold change vs veh, ZNF146 / RFU, ZNF330 / Fold change vs veh, ZNF330 / RFU, GPN3 / Fold change vs veh, GPN3 / RFU, C9orf123 / Fold change vs veh, C9orf123 / RFU, N4BP2L2 / Fold change vs veh, N4BP2L2 / RFU, ARFIP1 / Fold change vs veh, ARFIP1 / RFU, FAM179B / Fold change vs veh, FAM179B / RFU, BCL10 / Fold change vs veh, BCL10 / RFU, UHRF1BP1L / Fold change vs veh, UHRF1BP1L / RFU, BET1 / Fold change vs veh, BET1 / RFU, CNOT2 / Fold change vs veh, CNOT2 / RFU, ZNF268 / Fold change vs veh, ZNF268 / Fold change vs veh, ZNF507 / RFU, DGCR2 / Fold change vs veh, DGCR2 / RFU, WDSUB1 / Fold change vs veh, WDSUB1 / Fold change vs veh, HSP90B1 /// MIR3652 / RFU, ADSS / Fold change vs veh, ADSS / RFU, GK / Fold change vs veh, GK / RFU, ZNF148 / Fold change vs veh, ZNF148 / RFU, TAF9 / Fold change vs veh, TAF9 / RFU, SLC1A5 / Fold change vs veh, SLC1A5 / RFU, SLMO2 / Fold change vs veh, SLMO2 / RFU, ABCC4 / Fold change vs veh, ABCC4 / RFU, LOC101060439 /// RAP1B / Fold change vs veh, LOC101060439 /// RAP1B / RFU, RFX7 / Fold change vs veh, RFX7 / RFU, GTPBP10 / Fold change vs veh, GTPBP10 / RFU, CNEP1R1 / Fold change vs veh, CNEP1R1 / RFU, BIVM-ERCC5 /// ERCC5 / Fold change vs veh, BIVM-ERCC5 /// ERCC5 / RFU, ILF3 / Fold change vs veh, ILF3 / RFU 11762660_at / Fold change /veh 11762660_at / RFU VCAN (11757783_s_at) / Fold change /veh VCAN (11757783_s_at) / RFU DDX43 (11728927_at) / Fold change /veh DDX43 (11728927_at) / RFU KRT8 (11758188_x_at) / Fold change /veh KRT8 (11758188_x_at) / RFU NKD1 (11759106_at) / Fold change /veh NKD1 (11759106_at) / RFU SRD5A1 (11742802_a_at) / Fold change /veh SRD5A1 (11742802_a_at) / RFU TPSAB1 /// TPSB2 (11721975_s_at) / Fold change /veh TPSAB1 /// TPSB2 (11721975_s_at) / RFU GSTM3 (11746129_a_at) / Fold change /veh GSTM3 (11746129_a_at) / RFU IL23R (11737362_x_at) / Fold change /veh IL23R (11737362_x_at) / RFU TMEM51 (11727254_a_at) / Fold change /veh TMEM51 (11727254_a_at) / RFU PIWIL2 (11732686_x_at) / Fold change /veh PIWIL2 (11732686_x_at) / RFU ORM1 (11744905_x_at) / Fold change /veh ORM1 (11744905_x_at) / RFU CCDC152 (11743942_at) / Fold change /veh CCDC152 (11743942_at) / RFU ECM1 (11717891_a_at) / Fold change /veh ECM1 (11717891_a_at) / RFU IL23R (11748794_a_at) / Fold change /veh IL23R (11748794_a_at) / RFU TNFAIP8L3 (11732012_x_at) / Fold change /veh TNFAIP8L3 (11732012_x_at) / RFU MBOAT4 (11741988_at) / Fold change /veh MBOAT4 (11741988_at) / RFU 11764193_at / Fold change /veh 11764193_at / RFU TMEM53 (11763286_at) / Fold change /veh TMEM53 (11763286_at) / RFU MAGEB2 (11727129_at) / Fold change /veh MAGEB2 (11727129_at) / RFU TMEM200A (11744735_a_at) / Fold change /veh TMEM200A (11744735_a_at) / RFU CCDC152 (11751479_a_at) / Fold change /veh CCDC152 (11751479_a_at) / RFU FAM211A (11726209_a_at) / Fold change /veh FAM211A (11726209_a_at) / RFU RGS16 (11746705_a_at) / Fold change /veh RGS16 (11746705_a_at) / RFU VCAN (11755009_s_at) / Fold change /veh VCAN (11755009_s_at) / RFU RHOB (11743442_s_at) / Fold change /veh RHOB (11743442_s_at) / RFU RGS16 (11720943_a_at) / Fold change /veh RGS16 (11720943_a_at) / RFU RGS16 (11720944_at) / Fold change /veh RGS16 (11720944_at) / RFU, VPS4B / Fold change vs veh, VPS4B / RFU, CREB1 / Fold change vs veh, CREB1 / RFU, DNAJC13 / Fold change vs veh, DNAJC13 / RFU, GNAQ / Fold change vs veh, GNAQ / RFU, CDK5R1 / Fold change vs veh, CDK5R1 / RFU, ZRANB3 / Fold change vs veh, ZRANB3 / RFU, CUL4A / Fold change vs veh, CUL4A / RFU, CCNY / Fold change vs veh, CCNY / RFU, UFL1 / Fold change vs veh, UFL1 / RFU, COG3 / Fold change vs veh, COG3 / RFU, DIAPH2 / Fold change vs veh, DIAPH2 / RFU, SKA2 / Fold change vs veh, SKA2 / RFU, AFF3 / Fold change vs veh, AFF3 / RFU, LMF1 / Fold change vs veh, LMF1 / RFU, IPO11 / Fold change vs veh, IPO11 / RFU, DFFB / Fold change vs veh, DFFB / RFU, FOXP1 / Fold change vs veh, FOXP1 / RFU, CARD8 / Fold change vs veh, CARD8 / RFU, STRN3 / Fold change vs veh, STRN3 / RFU, ADK / Fold change vs veh, ADK / RFU, RASSF2 / Fold change vs veh, RASSF2 / RFU, WIPF1 / Fold change vs veh, WIPF1 / RFU, LARP1B / Fold change vs veh, LARP1B / RFU, RASA1 / Fold change vs veh, RASA1 / RFU, RB1 / Fold change vs veh, RB1 / RFU, PPFIA1 / Fold change vs veh, PPFIA1 / RFU, MAT2A / Fold change vs veh, MAT2A / RFU, CCT5 / Fold change vs veh, CCT5 / RFU, WDR92 / Fold change vs veh, WDR92 / RFU, CUX1 / Fold change vs veh, CUX1 / RFU, TTC7A / Fold change vs veh, TTC7A / RFU, TMEM135 / Fold change vs veh, TMEM135 / RFU, DEPTOR / Fold change vs veh, DEPTOR / RFU, CPM / Fold change vs veh, CPM / RFU, DNAJB6 / Fold change vs veh, DNAJB6 / RFU, CACNA2D3 / Fold change vs veh, CACNA2D3 / RFU, DTX4 / Fold change vs veh, DTX4 / RFU, TFCP2 / Fold change vs veh, TFCP2 / RFU, GMCL1 /// GMCL1P1 / Fold change vs veh, GMCL1 /// GMCL1P1 / RFU, AEBP2 / Fold change vs veh, AEBP2 / RFU, SNHG1 /// SNORD22 /// SNORD25 /// SNORD26 /// SNORD27 /// SNORD28 /// SNORD29 /// SNORD31 / Fold change vs veh, SNHG1 /// SNORD22 /// SNORD25 /// SNORD26 /// SNORD27 /// SNORD28 /// SNORD29 /// SNORD31 / Fold change (Aza/veh), C12orf56 (ProbeSet 11735607_a_at) / Fold change (ACY-1035/veh), C12orf56 (ProbeSet 11735607_a_at) / Fold change (Aza/veh), FGFR1OP (ProbeSet 11751329_s_at) / Fold change (ACY-1035/veh), FGFR1OP (ProbeSet 11751329_s_at) / Fold change (Aza/veh), VPS36 (ProbeSet 11739960_a_at) / Fold change (ACY-1035/veh), VPS36 (ProbeSet 11739960_a_at) / RFU SYPL1 (11715823_x_at) / Fold change /veh SYPL1 (11715823_x_at) / RFU IGFBP7 (11715501_s_at) / Fold change /veh IGFBP7 (11715501_s_at) / RFU REEP3 (11722064_at) / Fold change /veh REEP3 (11722064_at) / RFU IGLL1 (11728026_x_at) / Fold change /veh IGLL1 (11728026_x_at): dose or concentration left out as unconfirmed", "conditions": "MV-4-11 cells, 48 hours", "data": [{"smiles": "Nc1ncn([C@@H]2O[C@H](CO)[C@@H](O)[C@H]2O)c(=O)n1", "note": "[azacitidine]", "values": [{"measurement": "RFU SYPL1 (11715823_x_at)", "value": 860.69, "unit": "RFU"}]}]}
